Measurements: patent US7199151B2 (priority 1996, dated 2007)

How the values were obtained:
Type in all cases: cell-based
[1] = tested on: non-small cell lung cancer lines H522 and H460
Description: (§1) Conjugates 1 and 2 were sent to the United States National Cancer Institute (NCI) for screening in the NCI's anticancer screening program. The conjugates were provided in ethanol (approximately 40 mg analog/2 ml ethanol). […] Instructions were provided to store at 4° C. and to open the vials only when ready for immediate experimental use. Instructions also were provided to use the ethanol solutions containing the conjugates directly or to dissolve the analogs further in DMSO (dimethylsulfoxide) at appropriate concentrations, with vortexing if necessary for adequate dispersal.
(§2) The activities of conjugates 1 and 2 were tested against 57 cancer cell lines. […] To understand the data, reference is made to the guides provided by the NCI, excerpted as follows:
(§3) The Calculated Measurement of Effect: Percentage Growth (PG)
(§4) The measured effect of the compound on a cell line is currently calculated according to one or the other of the following two expressions: If (Mean ODtest−Mean ODtzero)≧0, then PG=100×(Mean ODtest−Mean ODtzero)/(Mean ODctrl−Mean Odtzero) If (Mean ODtest−Mean ODtzero)<0, then PG=100×(Mean ODtest−Mean Odtzero)/Mean Odtzero Where: • Mean ODtzero=The average of optical density measurements of SRB-derived color just before exposure of cells to the test compound. • Mean ODtest=The average of optical density measurements of SRB-derived color after 48 hours exposure of cells to the test compound. • Mean ODctrl=The average of optical density measurements of SRB-derived color after 48 hours with no exposure of cells to the test compound. • Experimental data was collected against each cell line . . . Each concentration is expressed as the log10 (molar or μg/ml) . . . The response parameters GI50, TGI, and LC50 are interpolated values representing the concentrations at which the PG is +50, 0, and −50, respectively. Sometimes these response parameters cannot be obtained by interpolation. If, for instance, all of the PGs in a given row exceed +50, then none of the three parameters can be obtained by interpolation. In such a case, the value given for each response parameter is the highest concentration tested . . . This practice is extended similarly to the other possible situations where a response parameter cannot be obtained by interpolation.
(§5) Dose-Response Curves: • The dose-response curve page of the data package is created by plotting the PGs against the log10 of the corresponding concentration for every cell line. The cell line curves are grouped by subpanel. Horizontal lines are provided at the PG values of +50, 0, and −50. The concentrations corresponding to points where the curves cross these lines are the GI50, TGI and LC50, respectively.

CNSU251 = tested on: CNSU251
Description: as §1, §2, §3, §4, §5

[2] = tested on: leukemia cancer cell lines; conditions: six leukemia lines for the conjugates, four for Taxol; FIGS. 1, 10 and 19
Description: as §1, §2, §3, §4, §5

[3] = tested on: MDA-N and MDA-MB-435 breast cancer cell lines; conditions: at all concentrations tested
Description: as §1, §2, §3, §4, §5

57 cancer cell lines = conditions: average over all cell lines; −10 used where Taxol was active at −10.0 (27 instances)
Description: as §1, §2, §3, §4, §5

CNSSF 268 = experiment: cells; conditions: concentration at which PG is +50, 48 hours exposure, SRB
Description: as §1, §2, §3
as §4, with “In such a case, the value given for each response parameter is the highest concentration tested . . . This practice is extended similarly to the other possible situations where a response parameter cannot be obtained by interpolation.” left out

CNS SF-539 = experiment: cells; conditions: 48 hours exposure, SRB
Description: as §1, §2, §3
as §4, with “In such a case, the value given for each response parameter is the highest concentration tested . . . This practice is extended similarly to the other possible situations where a response parameter cannot be obtained by interpolation.” left out

average GI50 across all cell lines tested (57 cancer cell lines): −9.19 log10 (molar or μg/ml)
SMILES: CC(=O)O[C@H]1C(=O)[C@@]2(C)[C@H]([C@H](OC(=O)c3ccccc3)[C@]3(O)C[C@H](OC(=O)[C@H](O)[C@@H](NC(=O)c4ccccc4)c4ccccc4)C(C)=C1C3(C)C)[C@]1(OC(C)=O)CO[C@@H]1C[C@@H]2O [Taxol, paclitaxel]
difference in effectiveness at TGI, H522 versus H460 [1]: about 3 logs | relative effectiveness at TGI, H522 versus H460 [1]: more effective against non-small cell lung cancer line H522 than against H460 | effectiveness at TGI against CNSU251 relative to other CNS cell lines (CNSU251): least effective | effectiveness against leukemia cancer cell lines [2]: somewhat effective | relative activity toward MDA-N versus MDA-MB-435 [3]: equivalent in activity | GI50 (CNSSF 268): < 0.1 nM | GI50 (CNS SF-539; CNSSF-539, concentration at which PG is +50, CNS SF 539): 30.2 nM | TGI (CNS SF-539; concentration at which PG is 0, CNS SF-539): −6.95 log10 (molar or μg/ml)
